In patent publication US9833497B2, “Human originated EGF domain proteins and use of the same” (CHENGDU SOURCEBIO LIMITED-LIABILITY COMPANY, priority 2013, dated 2017):

Tests used:
Format in all cases: cell-based
[1] = test system: Serratia marcescens; assay: MIC against Gram-negative bacteria: Serratia marcescens; settings: 96-well plate, 5×10^5 CFU/mL, 37° C., 10 h
Method in brief: (§1)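 MIC, the lowest recombinant protein concentration giving no bacterial growth, found by two-fold serial dilution of human EGF-domain proteins in triplicate. Inoculum 5×10^5 CFU/mL in LB from cultures at McFarland 0.5; plates incubated at 37° C, 175 rpm shaking.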

[2] = test system: Pseudomonas aeruginosa; assay: MIC against Gram-negative bacteria: Pseudomonas aeruginosa; settings: 96-well plate, 5×10^5 CFU/mL, 37° C., 10 h
Method in brief: as §1

[3] = test system: Proteus mirabilis; assay: MIC against Gram-negative bacteria: Proteus mirabilis; settings: 96-well plate, 5×10^5 CFU/mL, 37° C., 10 h
Method in brief: as §1

[4] = test system: E. coli BL21; assay: MIC against Gram-negative bacteria: E. coli BL21; settings: 96-well plate, 5×10^5 CFU/mL, 37° C., 10 h
Method in brief: as §1

[5] = test system: Moraxella catarrhalis; assay: MIC against Gram-negative bacteria: Moraxella catarrhalis; settings: 96-well plate, 5×10^5 CFU/mL, 37° C., 10 h
Method in brief: as §1

[6] = test system: E. coli DH5α; assay: Antibacterial activity: MIC and growth curve against E. coli DH5α in 96-well plate; settings: minimal inhibitory concentration against E. coli DH5α; 96-well plate, 5×10^5 CFU/mL, 37° C., judged after 8 h
Method in brief: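 Log-phase bacteria (OD600 ~0.5) resuspended in LB at 5×10^5 CFU/mL, exposed to recombinant protein at 50, 25, 12.5 μg/mL final in triplicate, 37 °C shaking at 175 rpm. OD600 read every 30 min; MIC is lowest concentration showing no growth.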

[7] = test system: Aeromonas hydrophila; assay: MIC against Gram-negative bacteria: Aeromonas hydrophila; settings: 96-well plate, 5×10^5 CFU/mL, 37° C., 10 h
Method in brief: as §1

[8] = test system: Proteus vulgaris; assay: MIC against Gram-negative bacteria: Proteus vulgaris; settings: 96-well plate, 5×10^5 CFU/mL, 37° C., 10 h
Method in brief: as §1

[9] = test system: Citrobacter diversus; assay: MIC against Gram-negative bacteria: Citrobacter diversus; settings: 96-well plate, 5×10^5 CFU/mL, 37° C., 10 h
Method in brief: as §1

[10] = test system: Klebsiella pneumonia; assay: MIC against Gram-negative bacteria: Klebsiella pneumonia; settings: 96-well plate, 5×10^5 CFU/mL, 37° C., 10 h
Method in brief: as §1

[11] = test system: Enterobacter cloacae; assay: MIC against Gram-negative bacteria: Enterobacter cloacae; settings: 96-well plate, 5×10^5 CFU/mL, 37° C., 10 h
Method in brief: as §1

Substance | MIC S. marcescens [1] | MIC P. aeruginosa [2] | MIC P. mirabilis [3] | MIC E. coli BL21 [4] | MIC M. catarrhalis [5] | MIC [6] | MIC A. hydrophila [7] | MIC P. vulgaris [8] | MIC C. diversus [9] | MIC K. pneumonia [10] | MIC E. cloacae [11]
PRT710 (DQDECAVYGTCSQTCRNTHGSYTCSCVEGYLMQPDNRSCK; listed as Homo sapiens) | 50 mg/L | 50 mg/L | 12.5 mg/L | 12.5 mg/L | 25 mg/L | 25 mg/L | 12.5 mg/L | 25 mg/L | 50 mg/L | 12.5 mg/L | 50 mg/L
PRT711 (GDNMCRVNNGGCSTLCLAIPGGRVCACADNQLLDENGTTCT; listed as Homo sapiens) | 50 mg/L | 50 mg/L | 12.5 mg/L | 12.5 mg/L | 50 mg/L | 25 mg/L | 50 mg/L | 25 mg/L | 12.5 mg/L | 12.5 mg/L | 25 mg/L
PRT712 (GSNSCQLNNGGCSQLCLPTSETTRTCMCTVGYYLQKNRMSCQ; listed as Homo sapiens) | 12.5 mg/L | 50 mg/L | 50 mg/L | 12.5 mg/L | 25 mg/L | 25 mg/L | 25 mg/L | 25 mg/L | 12.5 mg/L | 25 mg/L | 50 mg/L
PRT713 (GTNVCARDNGGCKQLCLYRGNSRRTCACAHGYLAEDGVTCL; listed as Homo sapiens) | 50 mg/L | 12.5 mg/L | 50 mg/L | 25 mg/L | 12.5 mg/L | 50 mg/L | 12.5 mg/L | 12.5 mg/L | 50 mg/L | 12.5 mg/L | 50 mg/L
PRT714 (HINECLSKKVSGCSQDCQDLPVSYKCKCWPGFQLKDDGKTCV; listed as Homo sapiens) | 12.5 mg/L | 12.5 mg/L | 12.5 mg/L | 25 mg/L | 50 mg/L | 12.5 mg/L | 50 mg/L | 50 mg/L | 12.5 mg/L | 12.5 mg/L | 12.5 mg/L
PRT715 (DIDECSSGFPCSQQCINTYGTYKCLCTDGYEIQPDNPNGCK; listed as Homo sapiens) | 12.5 mg/L | 25 mg/L | 25 mg/L | 50 mg/L | 12.5 mg/L | 50 mg/L | 12.5 mg/L | 50 mg/L | 50 mg/L | 12.5 mg/L | 50 mg/L
PRT716 (TEYTCEDNVNPCGDDAYCNQIKTSVFCRCKPGFQRNMKNRQCE; listed as Homo sapiens) | 12.5 mg/L | 25 mg/L | 25 mg/L | 50 mg/L | 12.5 mg/L | 25 mg/L | 50 mg/L | 50 mg/L | 25 mg/L | 12.5 mg/L | 25 mg/L
PRT717 (DLNECLVFGTCSHQCINVEGSYKCVCDQNFQERNNTCI; listed as Homo sapiens) | 50 mg/L | 50 mg/L | 25 mg/L | 12.5 mg/L | 50 mg/L | 50 mg/L | 12.5 mg/L | 12.5 mg/L | 25 mg/L | 12.5 mg/L | 50 mg/L
PRT718 (MTLCSALNCQYQCHETPYGGACFCPPGYIINHNDSRTCV; listed as Homo sapiens) | 12.5 mg/L | 50 mg/L | 25 mg/L | 25 mg/L | 12.5 mg/L | 12.5 mg/L | 25 mg/L | 50 mg/L | 25 mg/L | 25 mg/L | 25 mg/L
PRT719 (CNNPCEQFNGGCSHICAPGPNGAECQCPHEGNWYLANNRKHCI; listed as Homo sapiens) | 50 mg/L | 50 mg/L | 50 mg/L | 12.5 mg/L | 50 mg/L | 50 mg/L | 12.5 mg/L | 50 mg/L | 50 mg/L | 12.5 mg/L | 50 mg/L
PRT720 (INECHDPSISGCDHNCTDTLTSFYCSCRPGYKLMSDKRTCV; listed as Homo sapiens) | 50 mg/L | 12.5 mg/L | 25 mg/L | 25 mg/L | 50 mg/L | 50 mg/L | 12.5 mg/L | 12.5 mg/L | 25 mg/L | 12.5 mg/L | 50 mg/L
PRT721 (DIDECTEMPFVCSQKCENVIGSYICKCAPGYLREPDGKTCR; listed as Homo sapiens) | 50 mg/L | 25 mg/L | 12.5 mg/L | 12.5 mg/L | 50 mg/L | 25 mg/L | 12.5 mg/L | 12.5 mg/L | 25 mg/L | 50 mg/L | 25 mg/L
PRT723 (KERTCAENICEQNCTQLNEGGFICSCTAGFETNVFDRTSCL; listed as Homo sapiens) | 12.5 mg/L | 100 mg/L | 25 mg/L | 50 mg/L | 12.5 mg/L | 25 mg/L | 12.5 mg/L | 25 mg/L | 25 mg/L | 100 mg/L | 50 mg/L
PRT724 (DINECEQFGTCPQHCRNTKGSYECVCADGFTSMSDRPGKRCA; listed as Homo sapiens) | 25 mg/L | 12.5 mg/L | 25 mg/L | 12.5 mg/L | 12.5 mg/L | 12.5 mg/L | 12.5 mg/L | 12.5 mg/L | 25 mg/L | 12.5 mg/L | 25 mg/L
PRT725 (VPNLCKQICSHLCLLRPGGYSCACPQGSSFIEGSTTECD; listed as Homo sapiens) | 25 mg/L | 25 mg/L | 12.5 mg/L | 12.5 mg/L | 25 mg/L | 25 mg/L | 25 mg/L | 50 mg/L | 50 mg/L | 50 mg/L | 12.5 mg/L
PRT726 (LPPPCRCMHGGNCYFDETDLPKCKCPSGYTGKYCE; listed as Homo sapiens) | 25 mg/L | 25 mg/L | 12.5 mg/L | 50 mg/L | 25 mg/L | 12.5 mg/L | 25 mg/L | 50 mg/L | 50 mg/L | 25 mg/L | 12.5 mg/L
PRT727 (EFDDCQIWGICDQKCESRPGRHLCHCEEGYILERGQYCK; listed as Homo sapiens) | 50 mg/L | 50 mg/L | 50 mg/L | 25 mg/L | 25 mg/L | 12.5 mg/L | 25 mg/L | 12.5 mg/L | 12.5 mg/L | 12.5 mg/L | 50 mg/L
